Earlier results on 2 molecules are cited in patent US20170095440A1, “METHOD OF TREATING CANINE PANCREATITIS” (CK9, LLC, priority 2014, published 2017).

In this series the test system is serine protease. The following applies: hydrolysis products of Camostat Mesilate; cited from earlier work.

`N=C(N)Nc1ccc(C(=O)O)cc1` [GBA, 4-guanidinobenzoic acid]: the Anti-proteolytic activity result is on record as “non-active”.

Regarding `N=C(N)Nc1ccc(C(=O)Oc2ccc(CC(=O)O)cc2)cc1` [GBPA, 4-(4-guanidino-benzoyloxy) phenylacetic acid], the Anti-proteolytic activity entry is recorded as “active anti-proteolytic metabolite”.
